Reference: the supplement of paper PMC10627819

Legend:
Assay in all cases: fitness (endpoint OD595 vs no drug) (fraction); higher = more growth
S. aureus DSM 20231 = system: S. aureus DSM 20231
How it was run: (§1)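 Plates with 384 wells were inoculated at OD595 0.01 using 30 µl of TSB, LB Lennox or CY, or 55 µl for S. pneumoniae. Incubation was at 37 °C, with OD595 measured every 30 min for 14 h. Fitness is the stationary-phase transition optical density over the robust mean of no-drug control wells, after first-reading background subtraction; it is capped at 1.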

S. aureus Newman = system: S. aureus Newman
How it was run: as §1

S. pneumoniae D39V = system: S. pneumoniae D39V
How it was run: as §1

CO[C@@]12[C@H](COC(N)=O)C3=C(C(=O)C(C)=C(N)C3=O)N1C[C@@H]1N[C@@H]12 [Mitomycin C] + CN[C@@H]1[C@H](O)[C@H](NC)[C@H]2O[C@@]3(O)C(=O)C[C@@H](C)O[C@H]3O[C@@H]2[C@H]1O [Spectinomycin]
fitness
Conditions	first compound 0.001075 µg/mL	first compound 0.00215 µg/mL	first compound 0.0043 µg/mL	first compound 0.0156 µg/mL	first compound 0.0312 µg/mL	first compound 0.0625 µg/mL
S. aureus DSM 20231, partner 4 µg/mL	–	–	–	0.726	0.729	0.67
S. aureus DSM 20231, partner 8 µg/mL	–	–	–	0.705	0.733	0.62
S. aureus DSM 20231, partner 16 µg/mL	–	–	–	0.687	0.667	0.57
S. aureus Newman, partner 4 µg/mL	–	–	–	0.653	0.656	0.496
S. aureus Newman, partner 8 µg/mL	–	–	–	0.662	0.684	0.432
S. aureus Newman, partner 16 µg/mL	–	–	–	0.603	0.541	0.33
S. pneumoniae D39V, partner 4 µg/mL	0.899	0.814	0.746	–	–	–
S. pneumoniae D39V, partner 8 µg/mL	0.916	0.824	0.647	–	–	–
S. pneumoniae D39V, partner 16 µg/mL	0.839	0.784	0.628	–	–	–

fitness, one replicate
Conditions	first compound 0.002 µg/mL	first compound 0.004 µg/mL	first compound 0.008 µg/mL	first compound 0.0156 µg/mL	first compound 0.0312 µg/mL	first compound 0.0625 µg/mL
S. aureus DSM 20231, partner 32 µg/mL	–	–	–	0.614	0.475	0.258
S. aureus DSM 20231, partner 64 µg/mL	–	–	–	0.0362	0.0235	0.0021
S. aureus Newman, partner 32 µg/mL	–	–	–	0.294	0.158	0.034
S. aureus Newman, partner 64 µg/mL	–	–	–	0.017	0.0135	0
S. pneumoniae D39V, partner 4 µg/mL	0.903	0.851	0.638	–	–	–
S. pneumoniae D39V, partner 8 µg/mL	0.812	0.77	0.562	–	–	–
